Where two headings read alike, the source gives them in different places.
Tests used:
human mGlu5 = target: T1, human mGlu5 (Homo sapiens, UniProt P41594); experiment: Calcium mobilization assay in human mGlu5-HEK293A cells (NAM, EC80 glutamate); assay type: cell-based; conditions: for % GluMin: efficacy of the NAM to reduce an EC80 response of glutamate; for pIC50: n = 2 in triplicate; for IC50: read-out: hmGlu5 IC50; for fold increase in hmGlu5 potency: 22fC vs 22bC, 22gA vs 22iA, 22iA vs 22hA, 22iB vs 22hB
T1 construct: expressed in transfected cells
T1 sequence (P41594 21-1212): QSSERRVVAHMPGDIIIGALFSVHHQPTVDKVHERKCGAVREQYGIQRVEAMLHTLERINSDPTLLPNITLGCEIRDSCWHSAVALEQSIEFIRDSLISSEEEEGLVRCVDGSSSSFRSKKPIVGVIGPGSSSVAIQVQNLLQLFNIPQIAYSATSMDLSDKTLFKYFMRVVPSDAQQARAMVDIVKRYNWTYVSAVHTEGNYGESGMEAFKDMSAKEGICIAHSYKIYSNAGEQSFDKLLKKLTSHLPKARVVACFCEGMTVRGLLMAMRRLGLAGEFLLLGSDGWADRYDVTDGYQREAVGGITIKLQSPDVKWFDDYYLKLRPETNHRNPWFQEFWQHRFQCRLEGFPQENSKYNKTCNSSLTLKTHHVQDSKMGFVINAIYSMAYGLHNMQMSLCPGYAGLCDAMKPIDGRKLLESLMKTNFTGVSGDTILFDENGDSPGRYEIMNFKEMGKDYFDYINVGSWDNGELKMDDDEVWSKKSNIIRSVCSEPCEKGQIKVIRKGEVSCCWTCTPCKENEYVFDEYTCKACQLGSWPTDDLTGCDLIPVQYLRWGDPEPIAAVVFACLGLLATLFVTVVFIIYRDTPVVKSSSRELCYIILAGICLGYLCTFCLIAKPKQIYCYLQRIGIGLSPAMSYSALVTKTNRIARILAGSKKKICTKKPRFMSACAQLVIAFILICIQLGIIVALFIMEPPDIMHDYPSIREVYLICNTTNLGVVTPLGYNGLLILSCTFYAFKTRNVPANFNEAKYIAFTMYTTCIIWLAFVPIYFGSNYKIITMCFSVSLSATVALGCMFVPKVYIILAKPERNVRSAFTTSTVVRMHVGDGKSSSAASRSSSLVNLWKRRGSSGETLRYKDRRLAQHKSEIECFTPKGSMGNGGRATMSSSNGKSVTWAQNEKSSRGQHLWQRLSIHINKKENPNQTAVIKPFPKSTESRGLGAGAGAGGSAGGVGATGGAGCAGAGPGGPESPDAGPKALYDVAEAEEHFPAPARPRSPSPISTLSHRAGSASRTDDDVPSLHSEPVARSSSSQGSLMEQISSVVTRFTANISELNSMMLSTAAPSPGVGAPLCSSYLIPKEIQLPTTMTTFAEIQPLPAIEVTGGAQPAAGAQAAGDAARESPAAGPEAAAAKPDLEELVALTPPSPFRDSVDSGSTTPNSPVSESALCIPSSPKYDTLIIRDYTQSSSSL

[1] = Intrinsic clearance in rat liver microsomes; assay type: in vitro ADME; conditions: for CLint scaled at 40 min, 1 µM: pH 7.4, rat liver microsomes; for CLhep, rat: predicted hepatic clearance based on microsomal CLint
Procedure: (§1) Mean values for each species were calculated from 3 replicates.
(§2) Intrinsic Clearance in Rat and Human Liver Microsomes
(§3) The in vitro intrinsic clearance (CL int) was investigated in commercially obtained hepatic microsomes from rat and human donors using the substrate depletion (i.e., loss-of-parent vs. time, or t 1/2 method) approach with analyte detection via liquid chromatography-tandem mass spectrometry (LC-MS/MS). For each species, mean %parent remaining values at each time point were calculated from replicates raw data (analyte:IS peak area ratios) and used to determine in vitro t 1/2 and CLint.
(§4) Experiments were carried out using a robot-assisted (TECAN model Evo 200). Compound was incubated (1 µM final concentration) in buffer (100 mM potassium phosphate pH 7.4 with 3 mM MgCl2) containing hepatic microsomes (0.5 mg/mL final concentration) from multiple species, discretely, at 37 °C under constant orbital shaking. After 5 minutes (pre-incubation), reactions were initiated by addition of nicotinamide adenine dinucleotide phosphate (NADPH, 1 mM final concentration). At selected time intervals (0, 3, 7, 15, 25, and 45 minutes) post-addition of NADPH, aliquots (50 µL) were taken and placed into a 96-shallow-well plate containing ice cold acetonitrile (150 µL) with carbamazepine (IS, 50 nM). The plates were then centrifuged (3000 rcf at 4 °C) for 10 minutes. The supernatants were transferred to a new 96-shallow-well daughter plate and diluted (1:1 v/v) with water (Milli-Q filtered). The plates were then sealed in preparation for LC-MS/MS analysis (see below).
(§5) Raw LC-MS/MS peak area data generated from the assay samples were used to construct natural log-transformed %parent remaining vs. time plots (using t = 0 minute post-NADPH addition sample data as starting point set to 100%). In vitro compound half-life (t 1/2) values were obtained using the following […]
(§6) k is the slope from linear regression analysis of the natural log-transformed data (using means from Where all replicates at each time point). Resulting t 1/2 values were then used to calculate hepatic CLint values according to the following equation and with the use of species-specific scale-up factors for liver weight (grams) per total body weight (kg): […]
(§7) CLint = in vitro t1/2 x 0.5 mg microsomes x 1 gram liver x kg body wt aScale-up factors used are 45 (rat) and 20 (human).4
(§8) Predicted hepatic clearance (CLhep) was calculated using the following equation: […]
(§9) Qh represents hepatic blood flow (mL/min/kg): 21 for human, 70 for rat, and 90 for mouse.
(§10) Prepared samples were injected (10 µL each) onto an AB Sciex Triple Quad 4500 mass spectrometer system with an Agilent 1260 Infinity II pump and autosampler. Mass spectrometer conditions are described in Table S1. Quantitation of compounds was performed via AB Sciex Multiquant software using the raw analyte:IS peak area ratios. The typical detection range was 0.5 ng/mL to ≥ 5,000 ng/mL utilizing a quadratic equation regression with 1/x2 weighting.
(§11) Correction for dilution of all brain samples (in extraction buffer and subsequently in blank plasma, as previously described) was performed post-quantitation. The corrections for dilution in extraction buffer employed correction factors specific to each brain weight (not shown).

[2] = Intrinsic clearance in human liver microsomes; assay type: in vitro ADME; conditions: for CLint scaled at 40 min, 1 µM: pH 7.4, human liver microsomes; for CLhep, human: predicted hepatic clearance based on microsomal CLint
Procedure: as §1, §2, §3, §4, §5, §6, §7, §8, §9, §10, §11

[3] = Binding in plasma from rat (equilibrium dialysis); assay type: in vitro ADME; conditions: for stability in rat plasma: samples had low analyte peaks; for fraction unbound at 6 h, 5 µM: rat, plasma, equilibrium dialysis, read-out: Rat fu,plasma
Procedure: (§12) Binding in plasma from rat and human.
(§13) Determination of compounds’ fraction unbound (f u) in plasma from rat and human was conducted in vitro via equilibrium dialysis using HTDialysis membrane plates. Dialysis membranes (four paired strips per HTD assay) were hydrated as described by the manufacturer and inserted into the HTD plate, which was assembled and prepared for sample addition by the dispensing of blank buffer (DPBS, 100 µL/well) into the ‘top half’ of each membrane-split well. Each compound was diluted into plasma from each species (5 µM final concentration), which was aliquoted in triplicate to the ‘bottom half’ of the prepared HTD plate wells. The HTD plate was sealed and incubated for 6 hours at 37 °C. Following incubation, each well (both top and bottom halves) were transferred (20 µL) to the corresponding wells of a 96-shallow-well (V-bottom) plate. The daughter plates were then matrix-matched (buffer side wells received equal volume of plasma, and plasma side wells received equal volume of buffer), and extraction solution (120 µL; acetonitrile containing 50 nM carbamazepine as IS) was added to all wells of both daughter plates to precipitate protein and extract test article. The plates were then sealed and centrifuged (3500 rcf) for 10 minutes at ambient temperature. Supernatant (60 µL) from each well of the daughter plates was then transferred to the corresponding wells of new daughter plates (96-shallow-well, V bottom) containing water (Milli-Q, 60 µL/well), and the plates were sealed in preparation for LC-MS/MS analysis (see below). fu was calculated as (analyte to IS MS peak area ratio from Trans-buffer side) / (analyte to IS MS peak area ratio from Cis-plasma side). Mean values for each species were calculated from 3 replicates. […]
(§14) Mean values for each species were calculated from 3 replicates. […]
as §4, with “After” for “Experiments were carried out using a robot-assisted (TECAN model Evo 200). Compound was incubated (1 µM final concentration) in buffer (100 mM potassium phosphate pH 7.4 with 3 mM MgCl2) containing hepatic microsomes (0.5 mg/mL final concentration) from multiple species, discretely, at 37 °C under constant orbital shaking. After”

[4] = Binding in plasma from human (equilibrium dialysis); assay type: in vitro ADME; conditions: for fraction unbound at 6 h, 5 µM: human, plasma, read-out: Human fu,plasma
Procedure: as §12, §13, §14
as §4, with “After” for “Experiments were carried out using a robot-assisted (TECAN model Evo 200). Compound was incubated (1 µM final concentration) in buffer (100 mM potassium phosphate pH 7.4 with 3 mM MgCl2) containing hepatic microsomes (0.5 mg/mL final concentration) from multiple species, discretely, at 37 °C under constant orbital shaking. After”

[5] = Binding in brain homogenate from rat (equilibrium dialysis); assay type: in vitro ADME; conditions: rat brain homogenates; for fraction unbound at 6 h, 1 µM: rat, brain homogenate, read-out: Rat fu,brain
Procedure: transferred to the corresponding wells of new daughter plates (96-shallow-well, V bottom) containing water (Milli-Q, 60 µL/well), and the plates were sealed in preparation for LC-MS/MS analysis (see below). fu was calculated as (analyte to IS MS peak area ratio from Trans-buffer side) / (analyte to IS MS peak area ratio from Cis-plasma side). Mean values for each species were calculated from 3 replicates.
Binding in brain homogenate from rat.
Determination of fraction unbound (f u) in brain homogenate from rat was conducted using the same methodology and procedure than described for plasma protein binding assay with the following modifications: 1) a final compound concentration of 1 μM was used, 2) naïve rat brains were homogenized in DPBS (1:3 composition of brain: DPBS, w/w) using a Mini-Bead Beater™ machine in order to obtain […]
The diluted fraction unbound (f u2) in brain was calculated as (analyte to IS MS peak area ratio from Trans-buffer side) / (analyte to IS MS peak area ratio from Cis-brain homogenate side). Undiluted fraction unbound for the brain was calculated using the following equation: […]
as §14

[6] = IV plasma-brain level determination (PBL) in rat; assay type: in vivo; conditions: male, Sprague-Dawley, brain and plasma, SD rat, 0.2 mg/kg IV; for Kp at 0.25 h: total brain-to-plasma partition ratio; for Kp uu at 0.25 h: unbound brain-to-plasma partition ratio
[7] = human mGlu5-HEK293A cells, EC80 fixed concentration of glutamate

Row | % GluMin (human mGlu5; human mGlu5-HEK293A cells) [%] | pIC50 (human mGlu5; [7]) | IC50 (human mGlu5; [7]) [nM] | IC50 (human mGlu5) [nM] | Compound | fold increase in hmGlu5 potency (human mGlu5) [fold] | CLint scaled at 40 min, 1 µM [1] [mL/min/kg] | CLhep, rat [1] [mL/min/kg] | CLint scaled at 40 min, 1 µM [2] [mL/min/kg] | CLhep, human [2] [mL/min/kg] | stability in rat plasma [3] | fraction unbound at 6 h, 5 µM [4] | Rat fu,brain ([5]; fraction unbound) | fraction unbound at 6 h, 1 µM [5] | Kp at 0.25 h [6] | Human fu,plasma ([4]; fraction unbound) | Kp uu at 0.25 h [6] | fraction unbound at 6 h, 5 µM [3]
1 | 2 | 5.55 | 2840 | 2800 | Cc1cccc(NC(=O)c2cc(Oc3c(C)nn(C)c3C)cc(C)n2)n1 [22aC] |  |  |  |  |  |  |  |  |  |  |  |  | 
2 | 2 | 5.91 | 1250 |  | Cc1cc(Oc2cn(C)nc2C)cc(C(=O)Nc2nc(C)cs2)n1 [22bB] |  |  |  |  |  |  |  |  |  |  |  |  | 
3 | 2 | 5.74 | 1850 |  | Cc1cc(Oc2cc(C(F)F)n(C)n2)cc(C(=O)Nc2nc(C)cs2)n1 [22cB] |  |  |  |  |  |  |  |  |  |  |  |  | 
4 | 2 | 5.73 | 1890 |  | Cc1cc(Oc2ncn(C)n2)cc(C(=O)Nc2nc(C)cs2)n1 [22dB] |  |  |  |  |  |  |  |  |  |  |  |  | 
5 | 2 | 6.00 | 1010 |  | Cc1cccc(NC(=O)c2cc(Oc3ncn(C)n3)cc(C)n2)n1 [22dC] |  |  |  |  |  |  |  |  |  |  |  |  | 
6 | 2 | 5.77 | 1720 |  | Cc1cc(Oc2cc(C)n(C)n2)cc(C(=O)Nc2nc(C)cs2)n1 [22eB] |  |  |  |  |  |  |  |  |  |  |  |  | 
7 |  |  |  |  | Cc1cccc(NC(=O)c2cc(Oc3cnn(C)c3C(F)(F)F)cc(C)n2)n1 [22gC] |  | 600 | 63 | 68 | 16 |  | 0.011 |  | 0.005 |  |  |  | 
8 | 2 | 6.30 | 506 |  | Cc1cc(Oc2ccnn2C)cc(C(=O)Nc2ccc(F)cn2)n1 [22hA] |  |  |  |  |  |  |  |  |  |  |  |  | 
9 | 2 | 5.55 | 2820 | 2800 | Cc1csc(NC(=O)c2cc(Oc3cnn(C)c3)c(C(F)(F)F)cn2)n1 [24B] |  |  |  |  |  |  |  |  |  |  |  |  | 
10 | 2 | 5.89 | 1330 | 1300 | Cc1cccc(NC(=O)c2cc(Oc3cnn(C)c3)c(C(F)(F)F)cn2)n1 [24C] |  |  |  |  |  |  |  |  |  |  |  |  | 

Row | Compound | % GluMin (human mGlu5; human mGlu5-HEK293A cells) [%] | pIC50 (human mGlu5; [7]) | IC50 (human mGlu5; [7]) [nM] | IC50 (human mGlu5) [nM] | fold increase in hmGlu5 potency (human mGlu5) [fold] | CLint scaled at 40 min, 1 µM [1] [mL/min/kg] | CLhep, rat [1] [mL/min/kg] | CLint scaled at 40 min, 1 µM [2] [mL/min/kg] | CLhep, human [2] [mL/min/kg] | stability in rat plasma [3] | fraction unbound at 6 h, 5 µM [4] | Rat fu,brain ([5]; fraction unbound) | fraction unbound at 6 h, 1 µM [5] | Kp at 0.25 h [6] | Human fu,plasma ([4]; fraction unbound) | Kp uu at 0.25 h [6] | fraction unbound at 6 h, 5 µM [3]
11 | Cc1cccc(NC(=O)c2cc(Oc3cc(C)nn3C)cc(C)n2)n1 [22fC] | 2 | 6.69 | 207 |  | 7.8 | 436 | 60 | 71 | 16 | possibly be unstable in rat plasma | 0.037 | 0.008 | < 0.01 | 1.02 |  |  | 
12 | Cc1cc(Oc2cnn(C)c2C(F)(F)F)cc(C(=O)Nc2ccc(F)cn2)n1 [22gA] | 2 | 6.93 | 120 |  | ~3 | 82 | 38 | 11 | 7 | possibly be unstable in rat plasma | 0.012 |  |  | 3.08 |  |  | 
13 | Cc1cc(Oc2cnn(C)c2C(F)(F)F)cc(C(=O)Nc2nc(C)cs2)n1 [22gB] | 2 | 7.58 | 26 |  |  | 817 | 65 | 70 | 16 | possibly be unstable in rat plasma |  |  |  | 5.57 |  |  | 
14 | Cc1cc(Oc2ccnn2C)cc(C(=O)Nc2nc(C)cs2)n1 [22hB] | 2 | 7.02 | 96 |  |  | 45 | 27 | 216 | 19 |  | > 0.04 |  | 0.029 | 1.13 | 0.062 | 0.15 | 
15 | Cc1cccc(NC(=O)c2cc(Oc3ccnn3C)cc(C)n2)n1 [22hC] | 2 | 7.04 | 91 |  |  | 320 | 57 | 241 | 19 | potentially be unstable in rat plasma | 0.034 |  | 0.021 | 2.42 |  |  | 
16 | Cc1cc(Oc2cnn(C)c2)cc(C(=O)Nc2nc(C)cs2)n1 [22iB] | 2 | 7.56 | 28 |  | 3.4 | 44 | 27 | 46 | 14 |  | 0.063 |  | 0.014 | 1.37 |  | 0.22 | 0.089
17 | Cc1cccc(NC(=O)c2cc(Oc3cnn(C)c3)cc(C)n2)n1 [22iC] | 1 | 7.38 | 41 |  |  | 234 | 54 | 77 | 17 |  | 0.041 |  | 0.013 | 1.04 |  | 0.23 | 0.059

From PMC11647725, “Discovery of 4-(5-Membered)Heteroarylether-6-methylpicolinamide Negative Allosteric Modulators of Metabotropic Glutamate Receptor Subtype 5” (ACS Medicinal Chemistry Letters, 2024)
